Columns and labels:
Test in all cases: relative viability (nuclei count vs DMSO), 5 days (fraction); higher = more cells survive
Imatinib + Palbociclib = compound: Cc1ccc(NC(=O)c2ccc(CN3CCN(C)CC3)cc2)cc1Nc1nccc(-c2cccnc2)n1 [Imatinib] + CC(=O)c1c(C)c2cnc(Nc3ccc(N4CCNCC4)cn3)nc2n(C2CCCC2)c1=O [Palbociclib] (partner 0.5 µM)
Summary of the method: (§1)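 Relative viability was taken as the ratio of nuclei in treated wells to nuclei in vehicle wells. Lung cancer cell lines in 1536-well plates received compounds by pin tool one day after seeding, either one drug alone or a fixed anchor-drug dose plus five library-drug doses (not always all listed) in √10 steps. Nuclei were counted on 4× images after 5 days of treatment, and values are medians of duplicate plates.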

Imatinib + OSI-027 = compound: Cc1ccc(NC(=O)c2ccc(CN3CCN(C)CC3)cc2)cc1Nc1nccc(-c2cccnc2)n1 [Imatinib] + COc1cccc2cc(-c3nc([C@H]4CC[C@H](C(=O)O)CC4)n4ncnc(N)c34)[nH]c12 [OSI-027] (partner 0.5 µM)
Summary of the method: as §1

Imatinib + AZD7762 = compound: Cc1ccc(NC(=O)c2ccc(CN3CCN(C)CC3)cc2)cc1Nc1nccc(-c2cccnc2)n1 [Imatinib] + NC(=O)Nc1cc(-c2cccc(F)c2)sc1C(=O)N[C@H]1CCCNC1 [AZD7762] (partner 0.2 µM)
Summary of the method: as §1

Imatinib + Dasatinib = compound: Cc1ccc(NC(=O)c2ccc(CN3CCN(C)CC3)cc2)cc1Nc1nccc(-c2cccnc2)n1 [Imatinib] + Cc1nc(Nc2ncc(C(=O)Nc3c(C)cccc3Cl)s2)cc(N2CCN(CCO)CC2)n1 [Dasatinib] (partner 0.075 µM)
Summary of the method: as §1

Row | Cell Line | relative viability (Imatinib + Palbociclib; first compound 0.02 µM) | relative viability (Imatinib + Palbociclib; first compound 0.06325 µM) | relative viability (Imatinib + Palbociclib; first compound 0.2 µM) | relative viability (Imatinib + Palbociclib; first compound 0.6325 µM) | relative viability (Imatinib + Palbociclib; first compound 2 µM) | relative viability (Imatinib + OSI-027; first compound 0.02 µM) | relative viability (Imatinib + OSI-027; first compound 0.06325 µM) | relative viability (Imatinib + OSI-027; first compound 0.2 µM) | relative viability (Imatinib + OSI-027; first compound 0.6325 µM) | relative viability (Imatinib + OSI-027; first compound 2 µM) | relative viability (Imatinib + AZD7762; first compound 0.02 µM) | relative viability (Imatinib + AZD7762; first compound 0.06325 µM) | relative viability (Imatinib + AZD7762; first compound 0.2 µM) | relative viability (Imatinib + AZD7762; first compound 0.6325 µM) | relative viability (Imatinib + AZD7762; first compound 2 µM) | relative viability (Imatinib + Dasatinib; first compound 0.02 µM) | relative viability (Imatinib + Dasatinib; first compound 0.06325 µM) | relative viability (Imatinib + Dasatinib; first compound 0.2 µM) | relative viability (Imatinib + Dasatinib; first compound 0.6325 µM) | relative viability (Imatinib + Dasatinib; first compound 2 µM)
1 | NCI-H23 | 0.455 | 0.66 | 0.521 | 0.467 | 0.479 | 0.62 | 0.606 | 0.551 | 0.598 | 0.496 | 0.27 | 0.285 | 0.23 | 0.203 | 0.21 | 1.06 | 0.688 | 0.694 | 0.78 | 0.972
2 | NCI-H322M | 0.474 | 0.518 | 0.501 | 0.423 | 0.495 | 0.624 | 0.544 | 0.553 | 0.522 | 0.52 | 0.565 | 0.673 | 0.529 | 0.608 | 0.586 | 0.245 | 0.259 | 0.248 | 0.237 | 0.253
3 | NCI-H358 | 0.159 | 0.138 | 0.153 | 0.142 | 0.146 | 0.861 | 0.382 | 0.843 | 0.635 | 0.855 | 0.559 |  | 0.489 | 0.574 | 0.521 | 0.151 | 0.13 | 0.153 | 0.163 | 0.135
4 | NCI-H441 | 0.22 | 0.213 | 0.229 | 0.229 | 0.233 | 0.675 | 0.561 | 0.632 | 0.581 | 0.563 | 1.34 | 1.34 | 1.17 | 1.1 | 1.08 | 0.713 | 0.619 | 0.693 | 0.745 | 0.546
5 | NCI-H460 | 0.278 | 0.22 | 0.191 | 0.196 | 0.104 | 0.743 | 1.09 | 0.819 | 0.566 | 0.503 | 0.658 | 0.783 | 0.606 | 0.489 | 0.509 | 0.678 | 0.675 | 0.649 | 0.456 | 0.493
6 | NCI-H647 | 0.532 | 0.39 | 0.402 | 0.375 | 0.407 | 0.621 | 0.693 | 0.704 | 0.626 | 0.562 | 0.708 | 0.519 | 0.383 | 0.383 | 0.381 | 0.198 | 0.183 | 0.142 | 0.181 | 0.148
7 | NCI-H650 | 0.303 | 0.356 | 0.353 | 0.349 | 0.298 | 0.557 | 0.496 | 0.51 | 0.544 | 0.459 | 1.11 | 0.882 |  | 1.03 | 0.979 | 0.5 | 0.425 | 0.488 | 0.53 | 0.406
8 | NCI-H727 | 0.577 |  | 0.599 | 0.569 | 0.601 | 0.455 | 0.476 | 0.519 | 0.773 | 0.551 | 0.651 |  | 0.506 | 0.573 | 0.507 | 0.433 |  | 0.331 | 0.234 | 0.463
9 | NCI-H838 | 0.254 | 0.255 | 0.241 | 0.254 | 0.247 | 0.407 | 0.389 | 0.406 | 0.407 | 0.421 | 1.04 | 1.03 | 0.961 | 0.954 | 1.02 | 0.268 | 0.307 | 0.3 | 0.297 | 0.358
10 | NCI-H1355 | 0.433 |  | 0.426 | 0.398 | 0.39 | 0.386 |  | 0.388 | 0.315 | 0.432 | 0.988 |  | 0.83 | 0.63 | 0.571 | 0.766 |  | 0.659 | 0.696 | 0.678
11 | NCI-H1395 | 0.622 |  | 0.579 | 0.526 | 0.589 | 0.63 | 0.443 | 0.705 | 0.581 | 0.606 | 0.369 |  | 0.343 | 0.376 | 0.393 | 0.438 | 0.347 | 0.381 | 0.393 | 0.418
12 | NCI-H1437 | 0.329 | 0.288 | 0.324 | 0.343 | 0.266 | 0.998 | 0.945 |  | 0.911 | 0.891 | 1.24 | 1.07 | 1.09 | 1.04 | 1.14 | 0.444 | 0.309 | 0.409 | 0.25 | 0.334
13 | NCI-H1651 | 0.478 | 0.543 | 0.564 | 0.492 | 0.543 |  | 0.848 | 0.727 | 0.739 | 0.665 | 0.543 | 0.267 | 0.488 | 0.468 | 0.403 | 0.333 | 0.355 | 0.427 | 0.378 | 0.414
14 | NCI-H1734 | 0.348 |  | 0.402 | 0.346 | 0.351 | 0.656 | 0.54 | 0.64 | 0.609 | 0.5 | 0.673 |  | 0.516 | 0.48 | 0.484 | 0.478 | 0.457 | 0.45 | 0.442 | 0.427
15 | NCI-H1755 | 0.438 | 0.496 | 0.436 | 0.429 | 0.423 | 0.748 | 0.554 | 0.829 | 0.634 | 0.594 | 0.451 | 0.458 | 0.413 | 0.421 | 0.434 | 0.415 | 0.392 | 0.41 | 0.422 | 0.408
16 | NCI-H1792 | 0.608 | 0.542 | 0.655 | 0.573 | 0.736 | 0.84 | 0.549 | 0.697 | 0.162 | 0.673 | 0.727 | 0.7 | 0.513 |  | 0.34 | 0.847 | 0.429 | 0.769 | 0.596 | 0.666

Reference: the supplement of paper PMC10307832
